Measurements taken from patent US10532065B2, “Bisphosphonic acid derivative and application for same” (NAGASAKI UNIVERSITY, priority 2014, dated 2020).
Where “and” joins values, the source holds several entries; their conditions need not be identical. Equal entries are not always repeated. Where two headings read alike, the source gives them in different places. Each block holds one compound with its values, some of them ahead of it.

Experiments:
Assay type in all cases: cell-based
U937 cells = test: U937 cell growth inhibition (direct antitumor action, CellTiterGlo); details: for IC50: U937 cell growth inhibition, 4 days culture
Experimental: The direct antitumor action of bisphosphonic acid POM ester and bisphosphonic acid was studied by comparison using U937.
The direct antitumor action of various bisphosphonic acid POM esters was studied by comparison using U937 and EJ-1. The measurement was performed according to Experimental Example 2 and Experimental Example 4.

EJ-1 cells = test: EJ-1 cell growth inhibition (direct antitumor action, CellTiterGlo); details: for IC50: EJ-1 (bladder cancer) growth inhibition, 4 days culture
Procedure, shortened: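 EJ-1 cells run as in the earlier U937 protocol, with cells recovered by conventional EDTA-trypsin treatment. POM ester derivatives were tested side by side with the parent bisphosphonic acids for direct growth inhibition, read by CellTiterGlo.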

786-0 cells = test: 786-0 tumor cell growth inhibition (CellTiterGlo); details: 786-0, Renal cell carcinoma, 4 days culture
Experimental: (§2) First, EJ-1, 786-0, MKN1, OST, PC-3, PK-1, LK-2, G-361, TFK-1, MRK-nu-1 were cultured in RPMI1640 medium supplemented with 10% calf serum at 37° C. under 5% CO2 atmosphere while maintaining log phase. The cells were recovered by a conventional EDTA trypsin treatment, and centrifuged at 1,700 rpm, 4° C. for 5 min. The supernatant was removed, and suspended in RPMI1640 medium supplemented with 10% calf serum to 500 cells/50 μl. On the other hand, 10 mM stock solution of compound 7 which is a bisphosphonic acid POM ester derivative was serially diluted 2-fold from 200 pM. In addition, 10 mM stock solution of compound 14 which is bisphosphonic acid was serially diluted 2-fold from 2 mM. Then, the cell suspension (50 μl, 500 cells) and the compound solution (50 μl) were added to a flat-bottomed 96 well plate and cultured at 37° C. under 5% CO2 atmosphere for 4 days. Then, 100 μl of CellTiterGlo solution was added, and the mixture was pipetted 10 strokes, and transferred to a 96 well OptiPlate. After standing at room temperature for 10 min, the luminescence was measured by a luminometer and IC50 value was calculated.

TFK-1 cells = test: TFK-1 tumor cell growth inhibition (CellTiterGlo); details: TFK-1, Cholangiocarcinoma, 4 days culture
Experimental: as §2

MOLT-4 cells = test: MOLT-4 tumor cell growth inhibition (CellTiterGlo); details: MOLT-4, Acute lymphoblastic leukemia, 4 days culture
Experimental: (§3) To quantitatively study an action of compound 7, which is a bisphosphonic acid POM ester derivative, on various hematologic tumor-derived lymphoma and myeloidic leukemia cells, the concentration of a compound that inhibits cell proliferation to half was calculated as IC50, and a direct antitumor effect was studied from the value thereof. […] First, MOLT-4, THP-1, SCC-3, PEER, RAMOS-RA1, C1R, MOLT-3, Raji, U937, K562, Daudi were cultured in RPMI1640 medium supplemented with 10% calf serum at 37° C. under 5% CO2 atmosphere while maintaining log phase. The cells were recovered, and centrifuged at 1,700 rpm, 4° C. for 5 min. The supernatant was removed, and suspended in RPMI1640 medium supplemented with 10% calf serum to 500 cells/50 μl. On the other hand, 10 mM stock solution of compound 7 which is a bisphosphonic acid POM ester derivative was serially diluted 2-fold from 200 μM. In addition, 10 mM stock solution of compound 14 which is bisphosphonic acid was serially diluted 2-fold from 2 mM. Then, the cell suspension (50 μl, 500 cells) and the compound solution (50 μl) were added to a flat-bottomed 96 well plate and cultured at 37° C. under 5% CO2 atmosphere for 4 days. Then, 100 μl of CellTiterGlo solution was added, and the mixture was pipetted 10 strokes, and transferred to a 96 well OptiPlate. […]

SCC-3 cells = test: SCC-3 tumor cell growth inhibition (CellTiterGlo); details: SCC-3, Non-Hodgkin's lymphoma, 4 days culture
Experimental: as §3

PEER cells = test: PEER tumor cell growth inhibition (CellTiterGlo); details: T cell acute lymphocytic leukemia, 4 days culture
Experimental: as §3

RAMOS-RA1 cells = test: RAMOS-RA1 tumor cell growth inhibition (CellTiterGlo); details: PAMOS-RA1 (so in the source), Burkitt's lymphoma, 4 days culture
Experimental: as §3

MOLT-3 cells = test: MOLT-3 tumor cell growth inhibition (CellTiterGlo); details: MOLT-3, Acute lymphoblastic leukemia, 4 days culture
Experimental: as §3

Raji cells = test: Raji tumor cell growth inhibition (CellTiterGlo); details: Burkitt's lymphoma, 4 days culture
Experimental: as §3

K562 cells = test: K562 tumor cell growth inhibition (CellTiterGlo); details: K562, Erythromcytoma, 4 days culture
Experimental: as §3

786-0 cells / γδ T cells = test: TNF-α production from γδ T cells stimulated by compound-pretreated 786-0 cells; details: 786-0, Renal cell carcinoma, 4 hr pretreatment, 16 hr with γδ T cells, read-out: TNF-α50
Experimental: (§1) Since the above-mentioned results of Experimental Example confirm that the activity of bisphosphonic acids becomes high by POM esterification in various tumor cells, the TNF-α production induction ability of more number of tumor cells was quantitatively studied. […] Thereto was added a solution (500 μl) of compound 7 obtained by serially diluting 10 mM stock solution 10-fold from 20 μM, or a solution (500 μl) of compound 14 obtained by serially diluting 10 mM stock solution 10-fold from 200 μM, and the cells were suspended well. These conical tubes were stood at 37° C. for 4 hr, and the cells were washed 3 times with 5 ml of culture medium. To these cells was added 500 μl of medium, and the cells were suspended well. […] The cell culture medium was suspended well, and the plate was centrifuged at 1,700 rpm, 4° C. for 2 min and the culture supernatant (150 μl) was taken and placed in another round-bottomed 96 well plate. The plate was frozen at −80° C. overnight, left standing at room temperature for 1 hr, stirred well and 100 μl thereof was subjected to ELISA of TNF-α. The content of TNF-α was calculated from the analytical curve of TNF-α. These were performed in triplicate, and TNF-α50 of bisphosphonic acid POM ester derivative (compound 7) and bisphosphonic acid (compound 14) was calculated and summarized in Table 8.

MKN1 cells / γδ T cells = test: TNF-α production from γδ T cells stimulated by compound-pretreated MKN1 cells; details: MKN1, Gastric cancer, 4 hr pretreatment, 16 hr with γδ T cells, read-out: TNF-α50
Experimental: as §1

OST cells / γδ T cells = test: TNF-α production from γδ T cells stimulated by compound-pretreated OST cells; details: Osteosarcoma, 4 hr pretreatment, 16 hr with γδ T cells, read-out: TNF-α50
Experimental: as §1

PK1 cells / γδ T cells = test: TNF-α production from γδ T cells stimulated by compound-pretreated PK1 cells; details: PK1, Pancreatic cancer, 4 hr pretreatment, 16 hr with γδ T cells, read-out: TNF-α50
Experimental: as §1

LK-2 cells / γδ T cells = test: TNF-α production from γδ T cells stimulated by compound-pretreated LK-2 cells; details: LK-2, Lung cancer, 4 hr pretreatment, 16 hr with γδ T cells, read-out: TNF-α50
Experimental: as §1

U937 cells / γδ T cells = test: TNF-α production from γδ T cells stimulated by compound-pretreated U937 cells; details: U937, Histiocytic lymphoma, 4 hr pretreatment, 16 hr with γδ T cells, read-out: TNF-α50
Experimental: as §1

C1R cells / γδ T cells = test: TNF-α production from γδ T cells stimulated by compound-pretreated C1R cells; details: B cell lymphoma, 4 hr pretreatment, 16 hr with γδ T cells, read-out: TNF-α50
Experimental: as §1

[1] = system: MOLT-4 cells / γδ T cells; test: TNF-α production from γδ T cells stimulated by compound-pretreated MOLT-4 cells; details: MOLT-4, Acute lymphoblastic leukemia, 4 hr pretreatment, 16 hr with γδ T cells, read-out: TNF-α50
Experimental: as §1

PEER cells / γδ T cells = test: TNF-α production from γδ T cells stimulated by compound-pretreated PEER cells; details: T cell acute lymphocytic leukemia, 4 hr pretreatment, 16 hr with γδ T cells, read-out: TNF-α50
Experimental: as §1

[2] = system: RAMOS-RA1 cells / γδ T cells; test: TNF-α production from γδ T cells stimulated by compound-pretreated RAMOS-RA1 cells; details: RAMOS-RA1, Burkitt's lymphoma, 4 hr pretreatment, 16 hr with γδ T cells, read-out: TNF-α50
Experimental: as §1

[3] = system: YMB-1-E cells / γδ T cells; test: TNF-α production from γδ T cells stimulated by compound-pretreated YMB-1-E cells; details: Mammary carcinoma, 4 hr pretreatment, 16 hr with γδ T cells, read-out: TNF-α50
Experimental: as §1

IC50 (U937 cells; Homo sapiens, U-937, 96 h): 26000 nM
IC50 (EJ-1 cells; EJ1, 96 h): 3700 nM
IC50 (786-0 cells; Homo sapiens, 96 h): 25000 nM
IC50 (TFK-1 cells; 96 h): 30000 nM
IC50 (MOLT-4 cells; Homo sapiens, 96 h): 120000 nM
IC50 (SCC-3 cells; Homo sapiens, 96 h): 66000 nM
IC50 (PEER cells; 96 h): 82000 nM
IC50 (RAMOS-RA1 cells; 96 h): 75000 nM
IC50 (MOLT-3 cells; Homo sapiens, 96 h): 180000 nM
IC50 (Raji cells; Homo sapiens, 96 h): 120000 nM
IC50 (K562 cells; Homo sapiens, 96 h): 16000 nM
EC50 (786-0 cells / γδ T cells; Homo sapiens): > 100000 nM
EC50 (MKN1 cells / γδ T cells; Homo sapiens, MKN-1): 89000 nM
EC50 (OST cells / γδ T cells; T-cell): > 100000 nM
EC50 (PK1 cells / γδ T cells; PK-1): > 100000 nM
EC50 (LK-2 cells / γδ T cells; Homo sapiens): > 100000 nM
EC50 (U937 cells / γδ T cells; Homo sapiens, U-937): > 100000 nM
EC50 (C1R cells / γδ T cells): > 100000 nM
EC50 ([1]; Homo sapiens): > 100000 nM
EC50 (PEER cells / γδ T cells): > 100000 nM
EC50 ([2]; T-cell): > 100000 nM
EC50 ([3]; Homo sapiens): > 100000 nM
SMILES: O=P(O)(O)C(CNc1nccs1)P(=O)(O)O [Compound 14, 2-(thiazol-2-ylamino)ethylidene-1,1-bisphosphonic Acid, reference compound]

SMILES: CC(C)(C)C(=O)OCOP(=O)(OCOC(=O)C(C)(C)C)C(CNc1nccs1)P(=O)(OCOC(=O)C(C)(C)C)OCOC(=O)C(C)(C)C [Compound 7, tetrakispivaloyloxymethyl 2-(thiazol-2-ylamino) ethylidene-1,1-bisphosphonate]
IC50 (U937 cells): 280 nM and 260 nM
direct antitumor activity (in words) (U937 cells; U937 growth inhibition): particularly high activity
IC50 (EJ-1 cells): 26 nM
direct antitumor activity (in words) (EJ-1 cells; EJ-1 growth inhibition): particularly high activity
IC50 (786-0 cells): 880 nM
IC50 (TFK-1 cells): 100 nM
IC50 (MOLT-4 cells): 160 nM
IC50 (SCC-3 cells): 180 nM
IC50 (PEER cells): 23 nM
IC50 (RAMOS-RA1 cells): 110 nM
IC50 (MOLT-3 cells): 130 nM
IC50 (Raji cells): 270 nM
IC50 (K562 cells): 29 nM
EC50 (786-0 cells / γδ T cells): 65 nM
EC50 (MKN1 cells / γδ T cells): 560 nM
EC50 (OST cells / γδ T cells): 600 nM
EC50 (PK1 cells / γδ T cells): 450 nM
EC50 (LK-2 cells / γδ T cells): 97 nM
EC50 (U937 cells / γδ T cells): 60 nM
EC50 (C1R cells / γδ T cells): 530 nM
EC50 [1]: 59 nM
EC50 (PEER cells / γδ T cells): 83 nM
EC50 [2]: 140 nM
EC50 [3]: 630 nM
